The record followed here is patent EP1171440B1, “SUBSTITUTED-3-CYANO-[1.7],[1.5], AND [1.8]-NAPHTHYRIDINE INHIBITORS OF TYROSINE KINASES” (Wyeth Holdings Corporation, priority 1999, dated 2000).

For assay [1], the target named is T1, EGF-R Kinase (recombinant enzyme) (Homo sapiens, UniProt P00533).
T1 construct: containing the EGFR cDNA encoding amino acids 645 - 1186 preceded by Met-Ala-(His)6; made in house; host or cells: Sf9 insect cells infected with recombinant baculovirus vHcEGFR52
Kind of assay: Inhibition of Epidermal Growth Factor Receptor Kinase (EGF-R) using recombinant enzyme, RR-SRC peptide phosphorylation with 33P-ATP. It counts as biochemical. The note with it: for inhibition at 0.5 µM: 0.5 µM concentration of test compound, read-out: % Inhibition @ 0.5. How it is done:
Representative test compounds were evaluated for their ability to inhibit the phosphorylation of the tyrosine residue of a peptide substrate catalyzed by the enzyme epidermal growth factor receptor kinase. […] The enzyme used in this assay is the His-tagged cytoplasmic domain of EGFR. A recombinant baculovirus (vHcEGFR52) was constructed containing the EGFR cDNA encoding amino acids 645 - 1186 preceded by Met-Ala-(His)6 . Sf9 cells in 100 mm plates were infected at an moi of 10 pfu/cell and cells were harvested 48 h post infection. A cytoplasmic extract was prepared using 1% Triton X-100 and applied to Ni-NTA column. After washing the column with 20 mM imidazole, HcEGFR was eluted with 250 mM imidazole (in 50 mM Na2HPO4, pH 8.0, 300 mM NaCl). Fractions collected were dialyzed against 10 mM HEPES, pH 7.0, 50 mM NaCl, 10% glycerol, 1ug/mL antipain and leupeptin and 0.1 mM Pefabloc SC. The protein was frozen in dry ice/methanol and stored -70° C.
Test compounds were made into 10 mg/mL stock solutions in 100% dimethylsulfoxide (DMSO). Prior to experiment, stock solutions were diluted to 500 uM with 100% DMSO and then serially diluted to the desired concentration with HEPES buffer (30 mM HEPES pH 7.4).
For the enzyme reaction, 10 uL of each inhibitor (at various concentrations) were added to each well of a 96-well plate. To this was added 3 uL of enzyme (1:10 dilution in 10mM HEPES, pH 7.4 for final conc. of 1:120). This was allowed to sit for 10 min on ice and was followed by the addition of 5 ul peptide (80 uM final conc.), 10ul of 4X Buffer (Table A), 0.25 uL ^33P-ATP and 12 uL H2O. The reaction was allowed to run for 90 min at room temperature and was followed by spotting the entire volume on to precut P81 filter papers. The filter discs were washed 2X with 0.5% phosphoric acid and radioactivity was measured using a liquid scintillation counter. Table A
The IC50 is the concentration of test compound needed to reduce the total amount of phosphorylated substrate by 50%. The % inhibition of the test compound was determined for at least three different concentrations and the IC50 value was evaluated from the dose response curve. […] CPM(control) is in units of counts per minute and was a number expressing the amount of radiolabeled ATP (γ-^33P) incorporated into the RR-SRC peptide substrate by the enzyme after 90 minutes at room temperature in the absence of test compound as measured by liquid scintillation counting. The CPM values were corrected for the background counts produced by ATP in the absence of the enzymatic reaction. Where it was possible to determine an IC50 value, this is reported in TABLE 1 otherwise the % inhibition at 0.5 µM concentration of test compound is shown in TABLE 1.

The target in assay [2] is Mitogen Activated Protein Kinase (Mek-Erk) (Homo sapiens, UniProt P28482+Q02750). Kind of assay: Mitogen Activated Protein Kinase (MAPK) coupled MEK 1 / ERK2 assay. The class given is biochemical. The settings on record: separate entries = evaluated more than one time. How it is done:
To evaluate inhibitors of the MAP (mitogen activated protein) kinase a two component coupled standard pharmacological test procedure, which measures phosphorylation of a serine/threonine residue in an appropriate sequence in the substrate in the presence and absence of a putative inhibitor, was used. Recombinant human MEK 1 (MAPKK) was first used to activate recombinant human ERK2 (MAPK) and the activated MAPK (ERK) was incubated with substrate (MBP peptide or MYC peptide) in the presence of ATP, Mg^+2 and radiolabeled ^33P ATP. The phosphorylated peptide was captured on a P 81 phosphocellulose filter (paper filter or embedded in microtiter plate) washed and counted by scintillation methods.
The peptide substrates used in the assay are MBP, peptide substrate ([…]), or synthetic Myc substrate, ([…]•5 TFA. The recombinant enzymes used were prepared as GST fusion proteins of human ERK 2 and human MEK 1. Inhibitor samples were prepared as 10X stocks in 10% DMSO and an appropriate aliquot was used to deliver either 10 ug/ml for a single point screening dose or 100, 10, 1, and 0.1 uM final concentration for a dose response curve. Final DMSO concentrations were less than or equal to 1%.
The reaction was run as follows in 50 mM Tris kinase buffer, pH 7.4 in a reaction volume of 50 ul. The appropriate volume of kinase buffer and inhibitor sample was added to the tube. Appropriate dilution of enzyme was delivered to give 2-5 ug recombinant MAPK (Erk ) per tube. The inhibitor was incubated with MAPK (Erk) for 30 min at 0 deg. C. Recombinant Mek (MAPKK) ( 0.5-2.5 ug) or fully activated Mek (0.05-0.1 units) was added to activate the Erk and incubated for 30 min at 30° C. Then substrate and gamma ^33P ATP was were added to give a final concentration of 0.5- 1 mM MBPP or 250-500 uM Myc; 0.2-0.5 uCi gamma ^33P ATP/tube; 50 µM ATP final concentration. Samples were incubated at 30°C for 30 minutes and the reaction was stopped by adding 25 µl of ice cold 10 %TCA. After samples were chilled on ice for 30 min, 20 µl of sample was transferred onto P 81 phosphocellulose filter paper or appropriate MTP with embedded P 81 filter. Filter papers or MTP were washed 2 times with a large volume of 1% acetic acid, then 2 times with water. The filters or MTP were briefly air dried before addition of scintillant and samples were counted in the appropriate scintillation counter set up for reading ^33P isotope. Samples included a positive control (activated enzyme plus substrate); a no enzyme control; a no substrate control; samples with different concentrations of putative inhibitor; and samples with reference inhibitors (other active compounds or non-specific inhibitors such as staurosporine or K252 B).
The raw data was captured as cpm. Sample replicates were averaged and corrected for background count. Mean cpm data was tabulated by group and % inhibition by a test compound was calculated as (corrected cpm control- corrected. cpm sample/control) X 100 = % inhibition. If several concentrations of inhibitor were tested, IC50 values (the concentration which gives 50% inhibition) were determined graphically from the dose response curve for % inhibition or by an appropriate computer program. The results obtained for representative compounds of this invention are listed in TABLE 3 where there may be separate entries for the same compound; this is an indication that the compound was evaluated more than one time.

The subject of another assay is A2780DDP. The assay can be described thus: Inhibition of Cancer Cell Growth as Measured by Cell Number (Sulforhodamine B). The class given is cell-based, Human. The note with it: 48 hours exposure. How it is done:
(§1) After 48 hours exposure to test compounds, cells were fixed with trichloroacetic acid, and stained with Sulforhodamine B. After washing with trichloroacetic acid, bound dye was solubilized in 10 mM Tris base and optical density was determined using a plate reader. Under conditions of the assay the optical density is proportional to the number of cells in the well. […] The test procedure is described in details by Philip Skehan et. al, J.Natl. Canc. […] The Her2Neu cell line is a 3T3 line that has bbeen transfected with Her2 receptor kinase.

The next assay concerns A2780S. Described as above. The class given is cell-based, Human. The note with it: 48 hours exposure. How it is done: as §1
In the next assay the test system is A431. The assay is described as above. The class given is cell-based, Human. The note with it: 48 hours exposure. How it is done: as §1
The subject of the next assay is MDA435. The assay is described as above. It counts as cell-based, Human. The note with it: 48 hours exposure. How it is done:
as §1

A further assay has as its system SKBR3. Described as above. The class given is cell-based, Human. How it is done:
as §1

For the next assay, the system named is SW620. Described as above. It counts as cell-based, Human. How it is done:
as §1

Where [3] appears, read: recombinant His-tagged cytoplasmic domain of EGFR, RR-SRC peptide, 90 min at room temperature, read-out: IC50.
Where [4] appears, read: Homo sapiens, 48 h, read-out: IC50.
Setting [5] is: Homo sapiens, A-431, 48 h, read-out: IC50.
Setting [6] is: Homo sapiens, MDA435, 48 h, read-out: IC50.
Setting [7] is: Homo sapiens, SK-BR-3, 48 hours exposure, read-out: IC50.
[8] abbreviates: Homo sapiens, SW-620, 48 hours exposure, read-out: IC50.

Molecules are shown by their SMILES. Values after ≈ are worked out from the molar mass of the structure shown. Values joined by “and” are separate entries in the source; they are usually repeats but may differ in a detail not shown here. Identical values can stand only once. Like-named read-outs stand apart in the source and are kept apart here.

Mitogen Activated Protein Kinase (Mek-Erk), sequence (P28482 2-360): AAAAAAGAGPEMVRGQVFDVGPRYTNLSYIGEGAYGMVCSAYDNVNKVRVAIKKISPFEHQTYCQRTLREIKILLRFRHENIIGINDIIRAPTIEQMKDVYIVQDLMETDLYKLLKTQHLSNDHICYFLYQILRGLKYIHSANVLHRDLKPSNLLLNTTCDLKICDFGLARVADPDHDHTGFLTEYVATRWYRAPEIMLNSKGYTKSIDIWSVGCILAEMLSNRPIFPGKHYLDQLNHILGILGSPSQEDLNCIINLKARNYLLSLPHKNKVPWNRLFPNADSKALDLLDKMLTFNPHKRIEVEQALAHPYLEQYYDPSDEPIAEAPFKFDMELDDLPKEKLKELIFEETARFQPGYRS
Mitogen Activated Protein Kinase (Mek-Erk), sequence (Q02750 whole entry): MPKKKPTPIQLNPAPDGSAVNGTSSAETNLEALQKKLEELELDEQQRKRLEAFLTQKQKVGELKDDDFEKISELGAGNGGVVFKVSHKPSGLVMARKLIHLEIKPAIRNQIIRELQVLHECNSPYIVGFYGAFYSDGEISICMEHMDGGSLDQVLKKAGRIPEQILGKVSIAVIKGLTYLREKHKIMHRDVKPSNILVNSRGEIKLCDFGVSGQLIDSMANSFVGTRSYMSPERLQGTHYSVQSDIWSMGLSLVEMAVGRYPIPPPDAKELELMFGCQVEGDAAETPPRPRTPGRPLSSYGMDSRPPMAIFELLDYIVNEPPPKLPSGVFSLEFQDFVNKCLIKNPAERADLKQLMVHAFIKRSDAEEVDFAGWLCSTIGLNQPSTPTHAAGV
T1 sequence (P00533 669-1210): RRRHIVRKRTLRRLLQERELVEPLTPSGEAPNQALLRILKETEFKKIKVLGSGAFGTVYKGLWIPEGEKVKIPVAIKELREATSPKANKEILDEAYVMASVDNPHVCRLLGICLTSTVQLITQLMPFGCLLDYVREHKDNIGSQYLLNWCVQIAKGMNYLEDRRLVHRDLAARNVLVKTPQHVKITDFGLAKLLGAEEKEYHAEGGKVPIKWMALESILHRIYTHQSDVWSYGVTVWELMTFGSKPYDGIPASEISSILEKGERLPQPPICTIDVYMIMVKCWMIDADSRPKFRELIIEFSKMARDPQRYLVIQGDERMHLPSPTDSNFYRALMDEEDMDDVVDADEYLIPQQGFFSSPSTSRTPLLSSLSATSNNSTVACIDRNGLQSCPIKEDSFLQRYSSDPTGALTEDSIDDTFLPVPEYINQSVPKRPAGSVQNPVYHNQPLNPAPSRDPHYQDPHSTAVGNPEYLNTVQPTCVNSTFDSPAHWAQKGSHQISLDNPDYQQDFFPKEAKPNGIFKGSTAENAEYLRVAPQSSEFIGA

Turning to `N#Cc1cnc2ncc(N)cc2c1Nc1cccc(Br)c1` [Example 22, 6-Amino-4-(3-bromo-phenylamino)-[1.8]naphthyridine-3-carbonitrile], the IC50 is 0.05 µM in assay [1] (setting [3]) and above 100 µM in assay [2].

On to `CN(C)CC=CC(=O)Nc1cnc2ncc(C#N)c(Nc3cccc(Br)c3)c2c1` [Example 30, 4-Dimethylamino-but-2-enoic acid [5-(3-bromo-phenylamino)-6-cyano-[1.8]naphthyridin-3-yl]-amide], for which, in assay [1], the inhibition at 0.5 µM is 47%. In addition, the IC50 in assay [1] (setting [3]) is 0.8 µM; in assay [2] (read-out: IC50), 50 µM; in the assay with A2780DDP (setting [4]), 4 µg/mL (≈ 8.87 µM); in the assay with A2780S (setting [4]) it was 1.77 µg/mL (≈ 3.92 µM); with A431 (setting [5]) it was 2.76 µg/mL (≈ 6.12 µM); in the assay with MDA435 (setting [6]), above 5 µg/mL. For the same compound, the IC50 in the assay with SKBR3 (setting [7]) is 4.83 µg/mL (≈ 10.7 µM); with SW620 (setting [8]) it was above 5 µg/mL.

With `N#Cc1cnc2ncc([N+](=O)[O-])cc2c1Nc1ccc(F)c(Cl)c1` [Example 25, 4-(3-Chloro-4-fluoro-phenylamino)-6-nitro-[1.8]naphthyridine-3-carbonitrile], the IC50 in assay [1] (setting [3]) is 0.1 µM.

With `COc1ccc(CNc2cc3c(Nc4cccc(Br)c4)c(C#N)cnc3cn2)cc1` [Example 58, 4-(3-Bromo-phenylamino)-6-(4-methoxy-benzylamino)-[1.7]naphthyridine-3-carbonitrile], the IC50 in assay [1] (setting [3]) is above 0.1 µM; in assay [2] it was above 100 µM; in the assay on A2780DDP (setting [4]) it was 1.8 µg/mL (≈ 3.91 µM); in the assay with A2780S (setting [4]) it was 1 µg/mL (≈ 2.17 µM); with A431 (setting [5]), 0.4 µg/mL (≈ 0.869 µM); in the assay on MDA435 (setting [6]), 2.4 µg/mL (≈ 5.21 µM). For the same compound, the IC50 is 2.9 µg/mL (≈ 6.3 µM) in the assay on SKBR3 (setting [7]) and 4.1 µg/mL (≈ 8.91 µM) with SW620 (setting [8]).

Turning to `C=CC(=O)Nc1cnc2ncc(C#N)c(Nc3cccc(Br)c3)c2c1` [Example 23, N-[5-(3-Bromo-phenylamino)-6-cyano-[1.8]naphthyridin-3-yl]-acrylamide], the IC50 in assay [1] is 0.007 µM; in assay [2] (read-out: IC50) it was > 100 µM and 100 µM.

`CC#CC(=O)Nc1cnc2ncc(C#N)c(Nc3ccc(F)c(Cl)c3)c2c1` [Example 27, But-2-ynoic acid [5-(3-chloro-4-fluoro-phenylamino)-6-cyano-[1.8]-naphthyridin-3-yl]-amide] showed an IC50 in assay [2] above 100 µM.

On to `N#Cc1cnc2ncc([N+](=O)[O-])cc2c1Nc1cccc(Br)c1` [Example 21, 4-(3-Bromo-phenylamino)-6-nitro-[1.8]naphthyridine-3-carbonitrile], for which the IC50 in assay [1] (setting [3]) was found to be 0.003 µM.

For the compound `C[Si](C)(C)C#Cc1cc2c(Nc3cccc(Br)c3)c(C#N)cnc2cn1` [Example 85, 4-(3-Bromo-phenylamino)-6-trimethylsilanylethynyl-[1.7]naphthyridine-3-carbonitrile], the IC50 with A2780DDP worked out at 2.969 µg/mL (≈ 7.05 µM); in the assay on A2780S, 2.344 µg/mL (≈ 5.56 µM); in the assay on A431 it was 3.056 µg/mL (≈ 7.25 µM); in the assay with MDA435 it was 4.203 µg/mL (≈ 9.97 µM); in the assay with SKBR3 (48 hours exposure), 3.591 µg/mL (≈ 8.52 µM); with SW620 (48 hours exposure), 4.724 µg/mL (≈ 11.2 µM).

As to `CCOc1ccc2ncc(C#N)c(Nc3cccc(Br)c3)c2n1` [Example 35, 4-(3-Bromo-phenylamino)-6-ethoxy-[1.5]naphthyridine-3-carbonitrile], the inhibition at 0.5 µM in assay [1] came to 9%. In addition, the results for the IC50 in assay [1] (setting [3]) and in assay [2] were above 10 µM and above 100 µM, respectively.

`N#Cc1cnc2ccc(N)nc2c1Nc1cccc(Br)c1` [Example 49, 6-Amino-4-(3-bromo-phenylamino)-[1.5]naphthyridine-3-carbonitrile] registered an IC50 in assay [2] of 25 µM.

Regarding `N#Cc1cnc2ncc(N)cc2c1Nc1ccc(F)c(Cl)c1` [Example 26, 6-Amino-4-(3-chloro-4-fluoro-phenylamino)-[1.8]naphthyridine-3-carbonitrile], in assay [2] (read-out: IC50), the IC50 was above 100 µM.

Turning to `N#Cc1cnc2cccnc2c1Nc1cccc(Br)c1` [Example 37, 4-(3-Bromophenylamino)-[1.5]naphthyridine-3-carbonitrile], the IC50 in assay [2] (read-out: IC50) is above 100 µM.

With `N#Cc1cnc2ncc(NC(=O)CCl)cc2c1Nc1cccc(Br)c1` [Example 28, N-[5-(3-Bromo-phenylamino)-6-cyano-[1.8]naphthyridin-3-yl]-2-chloro-acetamide], the IC50 in assay [2] (read-out: IC50) was determined as 6 µM.

For the compound `N#Cc1cnc2cnc(N)cc2c1Nc1cccc(Br)c1` [Example 59, 6-Amino-4-(3-bromo-phenylamino)-[1.7]naphthyridine-3-carbonitrile], the IC50 in assay [1] (setting [3]) is 0.0007 µM; in the assay on A2780DDP (setting [4]), 3.1 µg/mL (≈ 9.11 µM); in the assay on A2780S (setting [4]) it was 3.5 µg/mL (≈ 10.3 µM); in the assay with A431 (setting [5]), 0.4 µg/mL (≈ 1.18 µM); in the assay with MDA435 (setting [6]), above 5 µg/mL; with SKBR3 (setting [7]), 4.1 µg/mL (≈ 12.1 µM). For the same compound, the IC50 in the assay with SW620 (setting [8]) is above 5 µg/mL.
